Assay results from BindingDB's records for doi:10.7270/Q21Z42V4 (Burnham Center For Chemical Genomics, 2010).

target: Intestinal-type alkaline phosphatase (Mus musculus, UniProt P24822); assay: PubChem AID 488875
Sequence (P24822 whole entry, looked up): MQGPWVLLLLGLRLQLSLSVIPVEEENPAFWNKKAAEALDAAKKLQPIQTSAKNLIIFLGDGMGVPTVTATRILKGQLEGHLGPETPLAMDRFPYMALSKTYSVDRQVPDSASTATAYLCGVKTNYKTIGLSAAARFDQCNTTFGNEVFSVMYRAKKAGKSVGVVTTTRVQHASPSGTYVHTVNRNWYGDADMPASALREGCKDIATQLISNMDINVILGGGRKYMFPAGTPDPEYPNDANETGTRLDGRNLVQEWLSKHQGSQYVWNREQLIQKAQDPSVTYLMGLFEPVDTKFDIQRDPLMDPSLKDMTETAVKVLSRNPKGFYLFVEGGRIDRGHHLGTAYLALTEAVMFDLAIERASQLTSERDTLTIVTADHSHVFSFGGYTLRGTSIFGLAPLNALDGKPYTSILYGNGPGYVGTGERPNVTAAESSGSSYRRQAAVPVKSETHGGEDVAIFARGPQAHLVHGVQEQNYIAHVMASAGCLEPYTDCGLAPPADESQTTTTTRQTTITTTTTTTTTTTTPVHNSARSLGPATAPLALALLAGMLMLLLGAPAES

Which EC50 does the source give for `C=c1[nH]n(-c2nc3ccccc3[nH]2)c(=O)c1=CN(C)C` [(4E)-2-(1H-benzimidazol-2-yl)-4-(dimethylaminomethylidene)-5-methyl-pyrazol-3-one] here?
Its EC50 is over 100 µM.

With `CCc1ccc(CN=Nc2ncnc3nc[nH]c23)cc1` [MLS000419199] as the molecule, how does the EC50 read?
Its EC50 is over 100 µM.

For `Cn1c(C(C#N)C(=O)c2ccc(Br)s2)nc2ccccc21` (centres undefined) [MLS001167394], which EC50 is on record?
The EC50 was over 100 µM.

How did the EC50 turn out when `COc1cccc(C=NNC(=O)c2[nH][nH]c(=O)c2C)c1O` [N'-[(E)-(5-methoxy-6-oxidanylidene-cyclohexa-2,4-dien-1-ylidene)methyl]-4-methyl-5-oxidanylidene-1,4-dihydropyrazole-3-carbohydrazide] was run?
The EC50 was over 100 µM.
